In patent US20260356809A1 (The United States of America, as represented by the …, priority 2022, published 2026):
Like-named read-outs stand apart in the source and are kept apart here.

Columns and labels:
[1] = target: T1, human D3 receptor (Homo sapiens, UniProt P35462); assay: D3R radioligand binding, [3H]N-methylspiperone, HEK293 membranes; conditions: for D2R Ki / D3R Ki: ratio of Ki values
T1 construct: expressed in transfected cells

[2] = target: T2, human D2L receptor (Homo sapiens, UniProt P14416); assay: D2R radioligand binding, [3H]N-methylspiperone, HEK293 membranes
T2 construct: expressed in transfected cells
T2 sequence (P14416 whole entry): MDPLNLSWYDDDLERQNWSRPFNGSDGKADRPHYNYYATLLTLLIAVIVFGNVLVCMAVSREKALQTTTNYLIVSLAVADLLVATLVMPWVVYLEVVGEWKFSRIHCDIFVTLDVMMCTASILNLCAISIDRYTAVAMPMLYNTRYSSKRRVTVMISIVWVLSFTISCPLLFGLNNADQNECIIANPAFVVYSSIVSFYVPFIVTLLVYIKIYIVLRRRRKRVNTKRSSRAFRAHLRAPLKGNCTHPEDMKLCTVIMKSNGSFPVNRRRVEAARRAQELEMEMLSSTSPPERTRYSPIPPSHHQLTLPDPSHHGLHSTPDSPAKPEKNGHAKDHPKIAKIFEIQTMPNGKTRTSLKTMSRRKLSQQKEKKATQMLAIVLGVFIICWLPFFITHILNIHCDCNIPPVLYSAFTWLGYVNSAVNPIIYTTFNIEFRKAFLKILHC

[3] = target: T3, 5-HT2B (Homo sapiens, UniProt P41595); assay: 5-HT2B IP-1, antagonist; assay type: cell-based
T3 sequence (P41595 whole entry, species assumed): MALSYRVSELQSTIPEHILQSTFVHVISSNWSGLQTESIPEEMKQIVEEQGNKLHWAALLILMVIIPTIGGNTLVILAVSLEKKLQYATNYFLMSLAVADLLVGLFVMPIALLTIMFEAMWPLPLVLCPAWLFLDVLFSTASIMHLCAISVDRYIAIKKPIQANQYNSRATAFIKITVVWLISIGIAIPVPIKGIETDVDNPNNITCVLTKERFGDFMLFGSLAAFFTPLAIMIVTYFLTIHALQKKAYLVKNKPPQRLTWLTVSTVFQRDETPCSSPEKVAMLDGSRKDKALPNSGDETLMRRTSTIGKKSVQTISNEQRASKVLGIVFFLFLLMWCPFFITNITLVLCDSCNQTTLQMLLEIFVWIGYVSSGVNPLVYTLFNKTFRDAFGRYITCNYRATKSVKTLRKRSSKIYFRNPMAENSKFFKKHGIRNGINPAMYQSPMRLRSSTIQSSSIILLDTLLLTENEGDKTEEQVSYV

[4] = target: T3, 5-HT2B; assay: 5-HT2B IP-1, agonist; assay type: cell-based; conditions: agonist mode
[5] = target: T4, D2LR (Homo sapiens, UniProt P14416); assay type: cell-based; conditions: miniG recruitment assay
T4 construct: expressed in transfected cells; host or cells: HEK 293T, transient
T4 sequence (P14416 whole entry): as the sequence (P14416 whole entry) above

[6] = system: cocaine self-administration in rats; conditions: general knowledge statement; cited from earlier work
[7] = [3H]N-methylspiperone, mean ± SEM of at least three experiments, read-out: D3R Ki ± SEM

T1 sequence (P35462 whole entry): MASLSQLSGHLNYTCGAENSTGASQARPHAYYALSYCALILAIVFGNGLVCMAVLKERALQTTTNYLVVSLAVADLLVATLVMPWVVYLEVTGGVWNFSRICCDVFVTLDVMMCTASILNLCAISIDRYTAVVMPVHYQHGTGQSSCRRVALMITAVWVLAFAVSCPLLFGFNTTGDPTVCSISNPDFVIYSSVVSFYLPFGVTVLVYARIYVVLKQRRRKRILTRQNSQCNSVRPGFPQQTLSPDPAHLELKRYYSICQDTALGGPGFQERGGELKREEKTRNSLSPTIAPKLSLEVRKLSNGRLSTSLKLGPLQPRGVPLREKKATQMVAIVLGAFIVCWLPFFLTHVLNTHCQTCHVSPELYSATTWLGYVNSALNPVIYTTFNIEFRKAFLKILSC

Compound | Ki [1] [nM] | D2R Ki / D3R Ki ([1]; [3H]N-methylspiperone) | Ki ([2]; read-out: D2R Ki ± SEM) [nM] | Ki [1, 7] [nM] | further results
COc1ccccc1N1CCN(CC[C@H]2CC[C@H](NC(=O)N(C)C)CC2)CC1 [Compound 6f, 3-(trans-4-(2-(4-(2-Methoxyphenyl)piperazin-1-yl)ethyl)cyclohexyl)-1,1-dimethylurea] | 1.01 ± 0.32 | 6.0 | – | – | Ki [2]: 6.07 ± 2.32 nM
CN(C)C(=O)N[C@H]1CC[C@H](CCN2CCN(c3ccc(Cl)cc3)CC2)CC1 [Compound 6g, 3-(trans-4-(2-(4-(4-Chlorophenyl)piperazin-1-yl)ethyl)cyclohexyl)-1,1-dimethylurea] | 33.8 ± 0.8 | – | – | – | Ki [2]: 337 ± 24 nM
CN(C)C(=O)N[C@H]1CC[C@H](CCN2CCN(c3ncccn3)CC2)CC1 [Compound 6h, 1,1-Dimethyl-3-(trans-4-(2-(4-(pyrimidin-2-yl)piperazin-1-yl)ethyl)cyclohexyl)urea] | 600 ± 136 | 5.7 | – | – | Ki [2]: 3440 ± 464 nM
CN(C)C(=O)N[C@H]1CC[C@H](CCN2CCN(c3nsc4ccccc34)CC2)CC1 [Compound 6i, 3-(trans-4-(2-(4-(Benzo[d]isothiazol-3-yl)piperazin-1-yl)ethyl)cyclohexyl)-1,1-dimethylurea] | 4.17 ± 0.33 | 1.1 | – | – | Ki [2]: 4.43 ± 0.38 nM
CN(C)C(=O)N[C@H]1CC[C@H](CCN2CCC(c3noc4cc(F)ccc34)CC2)CC1 [Compound 6j, 3-(trans-4-(2-(4-(6-Fluorobenzo[d]isoxazol-3-yl)piperidin-1-yl)ethyl)cyclohexyl)-1,1-dimethylurea] | 5.37 ± 0.72 | 1.0 | – | – | Ki [2]: 5.26 ± 1.56 nM
CN(C)C(=O)N[C@H]1CC[C@H](CCN2CCN(c3ccc4oc(C(N)=O)cc4c3)CC2)CC1 [Compound 6k, 5-(4-(2-(trans-4-(3,3-Dimethylureido)cyclohexyl)ethyl)piperazin-1-yl)benzofuran-2-carboxamide] | 1460 ± 270 | 41.9 | – | – | Ki [2]: 61100 ± 35100 nM
CCc1cccc(N2CCN(CC[C@H]3CC[C@H](NC(=O)c4cc5ccccc5[nH]4)CC3)CC2)c1Cl [Compound 10b, N-(trans-4-(2-(4-(2-Chloro-3-ethylphenyl)piperazin-1-yl)ethyl)cyclohexyl)indole-2-carboxamide] | – | – | 7.8 ± 1.9 | – | –
COCCC(=O)N[C@H]1CC[C@H](CCN2CCN(c3cccc(C(F)(F)F)n3)CC2)CC1 [Compound 13d] | – | – | – | – | 5-HT2B IP-1 Emax ± SEM [3]: 95.6 ± 2.0%; IC50 ([3]; read-out: 5-HT2B IP-1 IC50 ± SEM): 460 ± 100 nM; 5-HT2B IP-1 Emax ± SEM [4]: 6.66 ± 0.91%; EC50 ([4]; read-out: 5-HT2B IP-1 EC50 ± SEM): 37 ± 10 nM
COC(=O)N[C@H]1CC[C@H](CCN2CCN(c3cccc(Cl)c3Cl)CC2)CC1 [Compound 14a, Methyl (trans-4-(2-(4-(2,3-dichlorophenyl)piperazin-1-yl)ethyl)cyclohexyl)carbamate] | – | 11.5 | 3.72 ± 0.02 | 0.323 ± 0.075 | –
CCOC(=O)N[C@H]1CC[C@H](CCN2CCN(c3cccc(Cl)c3Cl)CC2)CC1 [Compound 14b, Ethyl (trans-4-(2-(4-(2,3-dichlorophenyl)piperazin-1-yl)ethyl)cyclohexyl)carbamate] | – | – | 8.4 ± 2.43 | 0.965 ± 0.129 | –
CCCOC(=O)N[C@H]1CC[C@H](CCN2CCN(c3cccc(Cl)c3Cl)CC2)CC1 [Compound 14c, Propyl (trans-4-(2-(4-(2,3-dichlorophenyl)piperazin-1-yl)ethyl)cyclohexyl)carbamate] | – | 14.4 | 25 ± 2.1 | 1.74 ± 0.17 | –
COCC(=O)N[C@H]1CC[C@H](CCN2CCN(c3cccc(Cl)c3Cl)CC2)CC1 [Compound 14d, N-(trans-4-(2-(4-(2,3-Dichlorophenyl)piperazin-1-yl)ethyl)cyclohexyl)-2-methoxyacetamide] | ≤ 1 | 28.6 | 7.67 ± 0.69 | 0.268 ± 0.065 | –
CCOCC(=O)N[C@H]1CC[C@H](CCN2CCN(c3cccc(Cl)c3Cl)CC2)CC1 [Compound 14e, N-(trans-4-(2-(4-(2,3-Dichlorophenyl)piperazin-1-yl)ethyl)cyclohexyl)-2-ethoxyacetamide] | ≤ 1 | – | 41.3 ± 3.9 | 1.06 ± 0.32 | –
COCCCC(=O)N[C@H]1CC[C@H](CCN2CCN(c3cccc(Cl)c3Cl)CC2)CC1 [Compound 14f, N-(trans-4-(2-(4-(2,3-Dichlorophenyl)piperazin-1-yl)ethyl)cyclohexyl)-4-methoxybutanamide] | – | 18.9 | 21.7 ± 3.8 | 1.15 ± 0.29 | –
CN(C)CC(=O)N[C@H]1CC[C@H](CCN2CCN(c3cccc(Cl)c3Cl)CC2)CC1 [Compound 14g, N-(trans-4-(2-(4-(2,3-dichlorophenyl)piperazin-1-yl)ethyl)cyclohexyl)-2-(dimethylamino)acetamide] | – | – | 3.72 ± 0.46 | 0.398 ± 0.084 | –
CCC(=O)N[C@H]1CC[C@H](CCN2CCN(c3cccc(Cl)c3Cl)CC2)CC1 [Compound 14i, N-(trans-4-(2-(4-(2,3-Dichlorophenyl)piperazin-1-yl)ethyl)cyclohexyl)propionamide] | – | 13.6 | 6.06 ± 1.07 | 0.447 ± 0.119 | –
CCCC(=O)N[C@H]1CC[C@H](CCN2CCN(c3cccc(Cl)c3Cl)CC2)CC1 [Compound 14j, N-(trans-4-(2-(4-(2,3-Dichlorophenyl)piperazin-1-yl)ethyl)cyclohexyl)butyramide] | – | 29.3 | 25.6 ± 5.7 | 0.875 ± 0.178 | –
CCCCC(=O)N[C@H]1CC[C@H](CCN2CCN(c3cccc(Cl)c3Cl)CC2)CC1 [Compound 14k, N-(trans-4-(2-(4-(2,3-Dichlorophenyl)piperazin-1-yl)ethyl)cyclohexyl)pentanamide] | – | 21.7 | 51.5 ± 18.6 | 2.37 ± 0.6 | –
O=C1OCCCN1[C@H]1CC[C@H](CCN2CCN(c3cccc(Cl)c3Cl)CC2)CC1 [Compound 34b, 3-(trans-4-(2-(4-(2,3-Dichlorophenyl)piperazin-1-yl)ethyl)cyclohexyl)-1,3-oxazinan-2-one] | ≤ 1 | – | 5.46 ± 2.14 | 0.248 ± 0.101 | –
O=C1NCCN1[C@H]1CC[C@H](CCN2CCN(c3cccc(Cl)c3Cl)CC2)CC1 [Compound 35a, 1-(trans-4-(2-(4-(2,3-Dichlorophenyl)piperazin-1-yl)ethyl)cyclohexyl)imidazolidin-2-one] | – | 12.9 | 5.66 ± 0.89 | 0.438 ± 0.053 | –
O=C1NCCCN1[C@H]1CC[C@H](CCN2CCN(c3cccc(Cl)c3Cl)CC2)CC1 [Compound 35b, 1-(trans-4-(2-(4-(2,3-Dichlorophenyl)piperazin-1-yl)ethyl)cyclohexyl)tetrahydropyrimidin-2(1H)-one] | – | – | 19 ± 4.7 | 2.97 ± 0.85 | –
O=C1CCCN1[C@H]1CC[C@H](CCN2CCN(c3cccc(Cl)c3Cl)CC2)CC1 [Compound 36a, 1-(trans-4-(2-(4-(2,3-Dichlorophenyl)piperazin-1-yl)ethyl)cyclohexyl)100yrrolidine-2-one] | – | – | 4.49 ± 0.78 | 0.537 ± 0.167 | –
O=C1CCCCN1[C@H]1CC[C@H](CCN2CCN(c3cccc(Cl)c3Cl)CC2)CC1 [Compound 36b, 1-(trans-4-(2-(4-(2,3-Dichlorophenyl)piperazin-1-yl)ethyl)cyclohexyl)piperidin-2-one] | – | – | 9.89 ± 2.77 | 1.74 ± 0.46 | –
NCCc1ccc(O)c(O)c1 [Dopamine, dopamine, reference compound] | – | – | – | – | D2R activity in words, miniG assay [5]: equivalent maximal responses
O=c1[nH]c2ccccc2n1C1CCN(CCCC(c2ccc(F)cc2)c2ccc(F)cc2)CC1 [pimozide] | – | – | – | – | biphasic effects on cocaine self-administration [6]: biphasic effects
(+)-butaclamol | – | – | – | – | biphasic effects on cocaine self-administration [6]: biphasic effects
